Where “and” joins values, the source holds several entries; their conditions need not be identical. Equal entries are not always repeated.
What was measured:
rat sensory neurones = test: Neurite growth of sensory neurones in primary culture (anti β-Tubulin, In Cell Analyzer); assay type: cell-based
Experimental: Rat sensory neurones were prepared according to the method described by Hall et al. 1997 (Hall A K, Ai X, Hickman G E, MacPhedran S E, Nduaguba C O, Robertson C P. The generation of neuronal heterogeneity in a rat sensory ganglion. J. Neurosci. 1997 Apr. 15; 17(8):2775-84). Briefly, female rats (15 days gestation) were killed by cervical dislocation (Rats Wistar; Janvier, Le Genest-St-Isle, France) and the foetuses removed from the uterus. Their spinal cords with the dorsal root ganglia (DRG) were removed and placed in ice-cold medium of Leibovitz (L15, Fisher 11415-049) containing Penicillin 50 Ul/ml-Streptomycin 50 pg/ml (PS, 1%) and bovine serum albuminutes (BSA 1%, Sigma A6003). The DRG were recovered and dissociated by trypsinisation for 20 minutes at 37° C. (trypsin EDTA 10×, 10%, Fisher 15400054) diluted in PBS without calcium and magnesium (Fisher 2007-03). The reaction was stopped by addition of Dulbecco modified Eagle medium (DMEM, Fisher 21969-035) containing DNase I grade II (0.1 mg/ml Roche diagnostic 104159) and foetal bovine serum (FBS 10%, Fisher 10270-098). The cell suspension was triturated with a 10 ml pipette and centrifuged at 350×g for 10 minutes at room temperature. The pellet of dissociated cells was then resuspended in defined culture medium.
Viable cells were counted in a Neubauer cytometer using the trypan blue exclusion test (Sigma) and seeded at a density of 25 000 cells/well in 96 well-plates (Nunc). Wells were pre-coated with poly-L-lysine (10 μg/ml, Sigma P2636) in ultra pure sterile water (Merck Eurolab 60759.01).
Cells were allowed to adhere for 2 hours and maintained in a humidified incubator at 37° C. in 5% CO2/95% air atmosphere.
The culture medium was changed into a defined culture medium after a 12 hours incubation period following the conditions described below:
NGF 50 ng/ml and 10 ng/ml (in 0.1% DMSO)
After 6 hours, 12 hours and 24 hours of incubation with 7β-OH EPIA, cells were fixed for 5 minutes in an ethanol/acetic acid solution (95%/5%) at −20° C. and rinsed 3 times in PBS.
Motor neurones and sensory neurones were labelled by monoclonal anti β-Tubulin antibody (Sigma T8660) diluted at 1:400 in incubation solution (PBS with 5% of FCS and 0.1% of saponin, Sigma S-7900). This antibody specifically labels neurone cell bodies and neurites.
After 2 hours of incubation, the cells were washed in PBS and incubated with Alexa Fluor 488 goat anti mouse IgG (Molecular Probes A11001) diluted at 1:300 in incubation solution to reveal the 8-Tubulin III antibodies.
Analysis of the total length of neurones labelled with anti β-Tubulin antibodies (neurones) were carried out using In Cell Analyzer 1000 3.2.Workstation software.
The results were expressed in percentage compared to the vehicle. Comparison of groups was carried out using the unpaired T test.

PC-12 cells = test: Ischaemia (oxygen-glucose deprivation)-induced cell death in NGF-differentiated PC-12 cells, Trypan Blue exclusion; assay type: cell-based; conditions: vs. ischemia alone
Experimental: PC-12 cells were maintained on flasks coated with Collagen typel in PC-12 media with the following composition; RPMI 1640 without L-glutamine with 2 mM L-glutamine, 10 mM HEPES, 1 mM Sodium Pyruvate, additional glucose to give a final concentration of 4.5 g/L (RPMI normally has 2 g/L), 10% heat inactivated horse serum, 5% foetal calf serum and 50 units of penicillin/streptomycin. Media was changed every 2 days.
Confluent cultures of PC-12 cells were differentiated by culturing for 7 days in PC-12 medium without serum but with 50 ng/mlNGF (PC-12 NGF media). The cells were harvested, washed, counted and 1×10^5 PC-12 cells/well were plated overnight in a micro titre plate in glucose free PC-12 NGF medium. The medium was then changed to glucose-free PC-12 NGF medium containing the compounds to be tested and the plates left under normoxic conditions for 30 minutes.
During this stage, the media and test substances for the anoxic exposure were placed in a chamber and de-oxygenated with 95% N2/5% CO2. The media in the plates was changed with the de-oxygenated media and the plates then placed in an anaerobic chamber gassed with 95% N2 5% CO2 for 10 minutes before being sealed and incubated at 37° C. overnight (18 hours). For normoxia controls, the cells were treated identically to ischemic treatments except that all incubations were in 5% CO2/95% air.
Viability was determined using Trypan Blue exclusion.

CC12CCC3C(C1CCC2=O)[C@@H](O)C[C@H]1C[C@@H](O)CCC31C (stereo partly drawn) [Compound 7β-OH-EPIA, 7β-hydroxy-EPIAndrosterone]
Neurites length per field, % Vehicle (rat sensory neurones; 10^−4 M, 6 hours): 101% | Neurites length per field, Mean (rat sensory neurones; 10^−4 M, 6 hours): 103.2 μm | Neurites length per field, % Vehicle (rat sensory neurones; 10^−4 M, 12 hours): 97% | Neurites length per field, Mean (rat sensory neurones; 10^−4 M, 12 hours): 290.3 μm | Neurites length per field, % Vehicle (rat sensory neurones; 10^−4 M, 24 hours): 104% | Neurites length per field, Mean (rat sensory neurones; 10^−4 M, 24 hours): 228.6 μm | Neurites length per field, % Vehicle (rat sensory neurones; 10^−5 M, 6 hours): 112% | Neurites length per field, Mean (rat sensory neurones; 10^−5 M, 6 hours): 114.8 μm | Neurites length per field, % Vehicle (rat sensory neurones; 10^−5 M, 12 hours): 108% | Neurites length per field, Mean (rat sensory neurones; 10^−5 M, 12 hours): 321.0 μm | Neurites length per field, % Vehicle (rat sensory neurones; 10^−5 M, 24 hours): 111% | Neurites length per field, Mean (rat sensory neurones; 10^−5 M, 24 hours): 244.8 μm | Neurites length per field, % Vehicle (rat sensory neurones; 10^−6 M, 6 hours): 96% | Neurites length per field, Mean (rat sensory neurones; 10^−6 M, 6 hours): 97.7 μm | Neurites length per field, % Vehicle (rat sensory neurones; 10^−6 M, 12 hours): 96% | Neurites length per field, Mean (rat sensory neurones; 10^−6 M, 12 hours): 287.0 μm | Neurites length per field, % Vehicle (rat sensory neurones; 10^−6 M, 24 hours): 86% | Neurites length per field, Mean (rat sensory neurones; 10^−6 M, 24 hours): 189.9 μm | Neurites length per field, % Vehicle (rat sensory neurones; 10^−7 M, 6 hours): 149% | Neurites length per field, Mean (rat sensory neurones; 10^−7 M, 6 hours): 151.8 μm | Neurites length per field, % Vehicle (rat sensory neurones; 10^−7 M, 6 hours, listed as 7β-OH EPIA): 171% | Neurites length per field, % Vehicle (rat sensory neurones; 10^−7 M, 12 hours): 134% | Neurites length per field, Mean (rat sensory neurones; 10^−7 M, 12 hours): 398.4 μm | Neurites length per field, % Vehicle (rat sensory neurones; 10^−7 M, 24 hours): 173% | Neurites length per field, Mean (rat sensory neurones; 10^−7 M, 24 hours): 380.8 μm | Neurites length per field, % Vehicle (rat sensory neurones; 10^−8 M, 6 hours): 176% | Neurites length per field, Mean (rat sensory neurones; 10^−8 M, 6 hours): 179.3 μm | Neurites length per field, % Vehicle (rat sensory neurones; 10^−8 M, 12 hours): 123% | Neurites length per field, Mean (rat sensory neurones; 10^−8 M, 12 hours): 368.3 μm | Neurites length per field, % Vehicle (rat sensory neurones; 10^−8 M, 24 hours): 174% | Neurites length per field, Mean (rat sensory neurones; 10^−8 M, 24 hours): 384.3 μm | Neurites length per field, % Vehicle (rat sensory neurones; 10^−9 M, 6 hours): 171% | Neurites length per field, Mean (rat sensory neurones; 10^−9 M, 6 hours): 174.2 μm | Neurites length per field, % Vehicle (rat sensory neurones; 10^−9 M, 6 hours, listed as 7β-OH EPIA): 149% | Neurites length per field, % Vehicle (rat sensory neurones; 10^−9 M, 12 hours): 145% | Neurites length per field, Mean (rat sensory neurones; 10^−9 M, 12 hours): 431.8 μm | Neurites length per field, % Vehicle (rat sensory neurones; 10^−9 M, 24 hours): 147% | Neurites length per field, Mean (rat sensory neurones; 10^−9 M, 24 hours): 324.9 μm | decrease in cell death (PC-12 cells; 1 μM): 26% and 25% | decrease in cell death (PC-12 cells; 10 μM): 53% and 50%

From patent US20130023504A1, “Modulation of Prostaglandin/Cyclooxygenase Metabolic Pathways” (HUNTER-FLEMING LIMITED, priority 2006, published 2013)
